Measurements published in article PMC8480782, “Efficient Dimerization Disruption of Leishmania infantum Trypanothione Reductase by Triazole-phenyl-thiazoles” (Journal of Medicinal Chemistry, 2021).

Tests used:
[1] = molecular target: T1, LiTryR (Leishmania infantum, UniProt A4HSF7); experiment: biochemical; format: biochemical; details: LiTryR; 1 μM TS2; maximum assayed 75 μM; read-out: IC50^act, TryR oxidoreductase activity
T1 construct: HIS (N); made in house; host or cells: E. coli BL21 (DE3) Rossetta
T1 sequence (A4HSF7 1-491): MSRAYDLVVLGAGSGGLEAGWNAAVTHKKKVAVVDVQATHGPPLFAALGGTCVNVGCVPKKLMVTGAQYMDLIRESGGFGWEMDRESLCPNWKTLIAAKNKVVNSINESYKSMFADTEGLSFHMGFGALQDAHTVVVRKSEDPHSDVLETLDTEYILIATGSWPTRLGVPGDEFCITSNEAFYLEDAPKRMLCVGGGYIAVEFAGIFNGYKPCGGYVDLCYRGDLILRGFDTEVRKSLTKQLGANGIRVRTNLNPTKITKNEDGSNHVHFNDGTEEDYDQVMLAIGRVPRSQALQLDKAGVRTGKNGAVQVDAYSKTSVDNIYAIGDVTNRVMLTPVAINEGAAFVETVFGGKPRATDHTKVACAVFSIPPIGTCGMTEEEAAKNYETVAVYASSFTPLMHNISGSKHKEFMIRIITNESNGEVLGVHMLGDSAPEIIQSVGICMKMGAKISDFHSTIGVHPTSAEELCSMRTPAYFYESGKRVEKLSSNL
Procedure: A concentration of 1 μM TS2 was used for this initial screening. This low substrate concentration is sufficient for comparison of compound inhibitory activity in the oxidoreductase assay.
Recombinant L. infantum TryR (LiTryR) HIS-tagged and HIS-FLAG-tagged versions were used for all LiTryR oxidoreductase activity and dimer quantitation assays. These LiTryR versions were purified from Escherichia coli as previously described.[25] Briefly, pRSETA-HIS-LiTryR construct alone or in combination with the pET24a-FLAG-LiTryR construct was transformed into BL21 (DE3) Rossetta E. coli strain. An overnight E. coli culture grown at 37 °C in Luria–Bertani (LB) medium with the appropriate antibiotics and vigorous shaking was diluted (1:100) in the same medium and allowed to grow in the same conditions until the OD600 was 0.5. Then, LiTryR expression was induced by addition of 1 mM isopropyl-β-D-1-thiogalactopyranoside (IPTG) for 16 h at 26 °C. The cells were centrifuged for 5 min at 9000g and 4 °C and the wet pellet resuspended in lysis buffer (50 mM Tris, pH 7, 300 mM NaCl, 25 mM imidazole, protease inhibitor cocktail, and 1 mg/mL lysozyme). […] The supernatant was sonicated again as previously described for 10 min and loaded on a HisTrap column (GE Healthcare, Chicago, IL) for 16 h at 4 °C using a P-1 peristaltic pump (GE Healthcare, Chicago, IL). Once loaded, the HisTrap column was connected to an ÄKTA purifier UPC 10 (GE Healthcare, Chicago, IL) and washed using a 5–10% gradient between buffer A (50 mM Tris, pH 7 and 300 mM NaCl) and B (50 mM Tris, pH 7, 300 mM NaCl, and 500 mM imidazole). LiTryR was eluted using a 40% gradient between buffers A and B. Fractions containing recombinant LiTryR were pooled and loaded into a HiPrep 26/10 Desalting column (GE Healthcare, Chicago, IL) previously equilibrated with buffer A. Finally, LiTryR was concentrated to 2 mg/mL using an Amicon Ultra-15 50K (Merck Millipore, Burlington, MA) and an equal volume of glycerol was added before storing at −20 °C.
(§1) TryR oxidoreductase activity was determined spectrophotometrically using a modified version of the DTNB-coupled assay described by Hamilton et al.[52] Briefly, reactions were carried out at 26 °C in 250 μL of N-(2-hydroxyethyl)piperazine-N′-ethanesulfonic acid (HEPES) buffer (pH 7.5, 40 mM) containing ethylenediaminetetraacetic acid (EDTA) (1 mM), NADP^+ (30 μM), DTNB (25 μM), TS2 (1 μM), NADPH (150 μM), glycerol (0.02%), DMSO (1.75%), and recombinant TryR (7 nM). […] Reactions were started by addition of a mixture of NADPH and TS2.
(§2) TryR oxidoreductase activity was monitored at 26 °C by an increase in absorbance at 412 nm in an EnSpire Multimode Plate Reader (PerkinElmer, Waltham, MA). […] (TNB) concentration was obtained by multiplying the absorbance values by 100 (50 μM TNB generates 0.5 arbitrary units of absorbance at 412 nm). In this DTNB-coupled assay, one molecule of T(SH)2 reduces one molecule of DTNB, producing two TNB molecules. All of the assays were conducted in at least three independent experiments. Data were analyzed using a nonlinear regression model with GraFit 6 software (Erithacus, Horley, Surrey, U.K.).

[2] = molecular target: T2, LiTryR dimer (Leishmania infantum, UniProt A4HSF7); experiment: biochemical; details: 400 nM LiTryR, 16 h at 37 °C; read-out: IC50^dim, LiTryR monomer displacement (dimer quantitation ELISA)
T2 construct: made in house; host or cells: E. coli BL21 (DE3) Rossetta (co-transformed with both plasmids)
T2 sequence (A4HSF7 1-491): as above
Procedure: The stability of the LiTryR dimeric form in the presence of 1,2,3-triazole-phenyl-thiazole-based compounds was evaluated using the novel enzyme-linked immunosorbent assay (ELISA) developed in our laboratory.[25] […] Next, the different solutions were centrifuged at 18 000g for 15 min at room temperature. The supernatants (200 μL/well) were added to the α-FLAG-coated plates (Sigma-Aldrich, St. Louis, MO) and incubated for 30 min at 37 °C with agitation in a humid atmosphere. The plates were washed five times with TTBS buffer (2 mM Tris, pH 7.6, 138 mM NaCl, and 0.1% Tween-20) and incubated with diluted monoclonal α-HIS horseradish peroxidase (HRP)-conjugated antibody (200 μL, 1:50 000, Abcam, Cambridge, U.K.) in fatty acid- and essentially globulin-free bovine serum albumin (BSA) (5%) prepared in TTBS buffer for 1 h at room temperature. The plates were washed five times, and o-phenylenediamine dihydrochloride (OPD) substrate prepared according to the manufacturer’s instructions was added. The enzymatic reaction was stopped after 5 min with H2SO4 (100 μL, […]), and the absorbances were measured at 490 nm in an EnSpire Multimode Plate Reader (PerkinElmer, Waltham, MA). All of the assays were conducted in triplicate in at least three independent experiments. Data were analyzed using a nonlinear regression model with GraFit 6 software (Erithacus, Horley, Surrey, U.K.).

[3] = molecular target: T3, TbTryR (Trypanosoma brucei brucei, UniProt P39051); experiment: TryR oxidoreductase activity, DTNB-coupled assay (TbTryR); format: biochemical; details: read-out: IC50, oxidoreductase activity of TbTryR
T3 construct: HIS; made in house; host or cells: E. coli
T3 sequence (P39051 whole entry): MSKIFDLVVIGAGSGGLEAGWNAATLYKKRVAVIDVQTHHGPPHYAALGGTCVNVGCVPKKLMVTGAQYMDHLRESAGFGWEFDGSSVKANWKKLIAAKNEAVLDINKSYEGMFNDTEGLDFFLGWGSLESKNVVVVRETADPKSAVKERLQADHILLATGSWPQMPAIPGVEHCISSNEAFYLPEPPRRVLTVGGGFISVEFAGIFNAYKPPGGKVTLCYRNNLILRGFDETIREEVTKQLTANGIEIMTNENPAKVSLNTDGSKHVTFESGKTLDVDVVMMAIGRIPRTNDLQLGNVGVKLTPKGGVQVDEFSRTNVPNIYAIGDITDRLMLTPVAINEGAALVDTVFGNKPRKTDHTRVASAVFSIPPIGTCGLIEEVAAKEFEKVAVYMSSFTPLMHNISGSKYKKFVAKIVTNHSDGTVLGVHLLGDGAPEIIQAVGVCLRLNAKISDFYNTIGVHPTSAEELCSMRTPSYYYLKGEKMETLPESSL
Source text: (§3) The DNA coding sequences for Homo sapiens GR, T. brucei TryR, and T. congolense TryR were polymerase chain reaction (PCR)-amplified and cloned in the pRSETA plasmid. The DNA coding for hGR (transcript variant 1; NCBI Reference Sequence: NM_000637.5) was purchased from GeneScript. Genomic DNA from T. congolense parasites was kindly provided by Dr. Stefan Magez (University of Vrije, Brussels). Genomic DNA from the T. brucei S16 cell line was kindly provided by José M. Pérez-Victoria. Instituto de Parasitología y Biomedicina “López—Neyra” CSIC. HIS-tagged recombinant T. brucei and T. congolense TryRs (TbTryR and TcoTryR, respectively) were purified from E. coli as already explained for LiTryR.
as §1, §2

[4] = molecular target: T4, TcoTryR (Trypanosoma congolense, UniProt P13110); experiment: TryR oxidoreductase activity, DTNB-coupled assay (TcoTryR); format: biochemical
T4 construct: HIS; made in house; host or cells: E. coli
T4 sequence (P13110 whole entry): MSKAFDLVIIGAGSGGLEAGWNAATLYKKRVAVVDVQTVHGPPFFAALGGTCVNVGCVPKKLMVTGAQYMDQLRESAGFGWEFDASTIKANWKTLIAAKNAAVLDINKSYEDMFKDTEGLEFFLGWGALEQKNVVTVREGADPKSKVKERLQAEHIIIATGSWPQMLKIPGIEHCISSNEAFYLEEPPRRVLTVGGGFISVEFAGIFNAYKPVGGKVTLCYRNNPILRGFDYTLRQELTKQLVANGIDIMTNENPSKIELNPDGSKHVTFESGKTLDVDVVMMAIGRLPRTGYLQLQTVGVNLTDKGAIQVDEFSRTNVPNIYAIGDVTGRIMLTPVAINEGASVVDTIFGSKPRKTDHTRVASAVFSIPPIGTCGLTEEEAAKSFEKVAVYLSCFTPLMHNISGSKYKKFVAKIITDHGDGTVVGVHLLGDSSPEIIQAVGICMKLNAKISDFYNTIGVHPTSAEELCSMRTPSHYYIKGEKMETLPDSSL
Source text: as §3, §1, §2

[5] = test system: L. infantum promastigotes; experiment: Leishmanicidal activity on promastigotes (PI exclusion, flow cytometry); format: cell-based, Leishmania infantum; details: Leishmania infantum; 24 h at 26 °C; read-out: EC50 promastigotes
Procedure: (§4) L. infantum promastigotes (MCAN/ES/89/IPZ229/1/89) were grown in Roswell Park Memorial Institute (RPMI)-1640 medium (Sigma-Aldrich, St. Louis, MO) supplemented with 10% heat-inactivated fetal calf serum (FCS), antibiotics, and 25 mM HEPES (pH 7.2) at 26 °C. L. infantum axenic amastigotes (MCAN/ES/89/IPZ229/1/89) were grown in M199 medium (Invitrogen, Leiden, The Netherlands) supplemented with 10% heat-inactivated FCS, 1 g/L β-alanine, 100 mg/L L-asparagine, 200 mg/L sucrose, 50 mg/L sodium pyruvate, 320 mg/L malic acid, 40 mg/L fumaric acid, 70 mg/L succinic acid, 200 mg/L α-ketoglutaric acid, 300 mg/L citric acid, 1.1 g/L sodium bicarbonate, 5 g/L morpholineethanesulfonic acid (MES), 0.4 mg/L hemin, and 10 mg/L gentamicine, pH 5.4, at 37 °C.
(§5) Drug treatment of L. infantum promastigotes was performed during the logarithmic growth phase at a concentration of 2 × 10^6 parasites/mL at 26 °C for 24 h. […] EC50 was evaluated by flow cytometry by the propidium iodide (PI) exclusion method. After selection of the parasite population based on their forward scatter (FSC) and side scatter (SSC) values, live and dead parasite cells were identified by their permeability to PI. All of the assays were conducted in triplicate in at least three independent experiments. Data were analyzed using a nonlinear regression model with GraFit 6 software (Erithacus, Horley, Surrey, U.K.).

[6] = test system: L. infantum axenic amastigotes; experiment: Leishmanicidal activity on axenic amastigotes (PI exclusion, flow cytometry); format: cell-based, Leishmania infantum; details: Leishmania infantum; axenic amastigotes, 24 h at 37 °C; read-out: EC50 amastigotes
Procedure: as §4
Axenization was performed by diluting 0.5 mL of a 7-day stationary phase culture of L. infantum promastigotes (2–3 × 10^7 parasites/mL) in 4.5 mL of amastigotes medium and incubating the culture at 37 °C for 2 or 3 days. L. infantum axenic amastigotes apparition was followed by phase-contrast microscopy using an Eclipse Ti inverted microscope (Nikon, Tokyo, Japan).
as §5

[7] = test system: HepG2 cells; experiment: Cellular toxicity, crystal violet assay; format: cell-based; details: Homo sapiens, HepG2; 24 h, crystal violet method; read-out: EC50 HepG2
Procedure: Liver hepatocellular carcinoma HepG2 cells were grown in Dulbecco’s modified Eagle’s medium (DMEM) (Sigma-Aldrich, St. Louis, MO) with 10% heat-inactivated FCS, antibiotics, and 10 mM HEPES.
Drug treatment of liver hepatocellular carcinoma HepG2 cells was performed at a concentration of 10^5 cells/mL at 37 °C and 5% CO2 for 24 h. EC50 was evaluated by the crystal violet assay. Briefly, cells were washed with phosphate-buffered saline (PBS) and stained with 200 μL of crystal violet solution (0.2% crystal violet, 2% ethanol) for 10 min at room temperature. Next, the plates were washed twice with tap water and allowed to dry. The stained cells were solubilized with 400 μL of 1% sodium dodecyl sulfate (SDS), and the color intensity was quantified at 570 nm using an EnSpire Multimode Plate Reader (PerkinElmer, Waltham, MA). All of the assays were conducted in triplicate in at least three independent experiments. Data were analyzed using a nonlinear regression model with GraFit 6 software (Erithacus, Horley, Surrey, U.K.).

[8] = test system: L. infantum intracellular amastigotes; experiment: Leishmanicidal activity in amastigote-infected THP-1 monocyte-derived macrophages; format: cell-based, Leishmania infantum; details: Leishmania infantum, THP-1, 72 h, read-out: EC50 intracellular amastigotes, amastigote-infected THP-1 macrophages, 72 h
Procedure: (§6) THP-1 monocytes were seeded in a 48-well plate at a concentration of 5 × 10^5 cells/mL (250 μL/well) in RPMI complete medium supplemented with phorbol 12-myristate 13-acetate (PMA) (100 ng/mL). Differentiation of THP-1 monocytes to macrophages was allowed for 24 h at 37 °C and 5% CO2. THP-1-derived macrophages were infected with GFP-expressing axenic amastigotes at 5 × 10^6 parasites/mL in RPMI complete medium for 24 h (250 μL/well). Extracellular amastigotes were washed twice with PBS. The remaining extracellular parasites were challenged for 24 h with THP-1 medium supplemented with 10% horse serum (Gibco) instead of FCS. Cells were washed twice with PBS, and treatments were performed in 250 μL of fresh RPMI medium supplemented with 10% horse serum for 72 h at 37 °C and 5% CO2. Afterward, treatments were removed by two PBS washes. Lysis of infected cells was performed with 120 μL of SDS 0.005% (w/v) in PBS. After a 30 min incubation at 37 °C, lysis was stopped by adding RPMI complete medium with PI at 20 μg/mL (120 μL/well). The lysates were transferred to a 96-well plate (200 μL/well), and the GFP^+ amastigotes extracted from the infected cells were acquired by a Beckman Coulter FC500 flow cytometer. Each sample (100 μL) was acquired for 20 s.
The relative number of GFP^+ intracellular amastigotes per cell in each sample was estimated after the division of the total number of GFP+ amastigotes by the LDH activity value of the sample. Results were normalized to the vehicle-treated controls. EC50 values of intracellular amastigotes were calculated using a nonlinear regression model with GraFit 6 software (Erithacus, Horley, Surrey, U.K.). All of the assays were conducted in at least three independent experiments.

[9] = test system: THP-1 monocyte-derived macrophages; experiment: Cytotoxicity in THP-1 monocyte-derived macrophages (LDH activity); format: cell-based, human; details: Homo sapiens, THP-1; LDH activity
Procedure: THP-1 cells were grown in RPMI-1640 medium (Gibco, Leiden, The Netherlands) supplemented with 10% heat-inactivated FCS, antibiotics, 10 mM HEPES, 2 mM glutamine, and 1 mM sodium pyruvate, pH 7.2, at 37 °C and 5% CO2.
as §6
Cytotoxicity of THP-1 infected macrophages was determined using an in-house developed lactate dehydrogenase (LDH) activity assay. LDH activity assays from the remaining cell lysates (100 μL/well) were carried out at 37 °C in 250 μL of Tris/HCl buffer (pH 8.9, 50 mM) containing DL-lactate (840 mM), NAD^+ (450 μM), 1-methoxyphenazine methosulfate (45 μM), and nitro blue tetrazolium chloride (40 μM). The color intensity of the generated formazan dye was monitored at 570 nm using an EnSpire Multimode Plate Reader (PerkinElmer, Waltham, MA). CC50 values were calculated using a nonlinear regression model with GraFit 6 software (Erithacus, Horley, Surrey, U.K.).

Compound	IC50 [1]	IC50 [2]	melting point	IC50 [3]	IC50 [4]	EC50 [5]	EC50 [6]	EC50 [7]	EC50 [8]	EC50 [9]
O=C(O)CCCc1cn(-c2ccc(-c3nc(CCc4ccccc4)cs3)c(OCCN3CCNC3=O)c2)nn1 [12g]	> 75 µM	> 75 µM	174.5 to 177.5 °C							
NCCCCc1cn(-c2ccc(-c3nc(CCc4ccccc4)cs3)c(OCCN3CCNC3=O)c2)nn1 [12a, 1-(2-(5-(4-(4-Ammoniumbutyl)-1H-1,2,3-triazol-1-yl)-2-(4-phenethylthiazol-2-yl)phenoxy)ethyl)imidazolidin-2-one 2,2,2-Trifluoroacetate]				13.3 ± 1.9 µM	11 ± 1.3 µM	16.4 ± 0.9 µM	13.9 ± 0.6 µM	20.3 ± 2.4 µM	32.4 ± 6.7 µM	45 ± 3.1 µM
